Measurements published in US20230111310A1, “CARBOXYLIC ACID DERIVATIVE-SUBSTITUTED IMINO ARYL COMPOUND, PREPARATION METHOD THEREFOR, HERBICIDAL COMPOSITION AND USE THEREOF” (Qingdao Kingagroot Chemical Compound Co., Ltd., priority 2020, published 2023).

Experiments:
Assay in all cases: Weeding effect in post-emergence stage
Assay type in all cases: in vivo
Details in all cases: level of fresh weight growth control rate
Eleusine indica = system: Eleusine indica
Summary of the method: (§1)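 Post-emergence spray tower; 2-3 leaf plants (2 wk after sowing, soil pots, greenhouse). Formulation: acetone, Tween 80, methyl oleate EC 1.5 liter/ha as synergist, water. Rates 500–7.5 g/ha. Growth control rate read at 3 wk; n=3, averaged.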

Alopecurus japonicus = system: Alopecurus japonicus
Summary of the method: as §1

Digitaria sanguinalis = system: Digitaria sanguinalis
Summary of the method: as §1

Setaria viridis = system: Setaria viridis
Summary of the method: as §1

Abutilon theophrasti = system: Abutilon theophrasti
Summary of the method: as §1

Echinochloa crusgalli = system: Echinochloa crusgalli
Summary of the method: as §1

SMILES | Weeding effect in post-emergence stage, Eleusine indica (Eleusine indica; Dose 15 g/ha) | Weeding effect in post-emergence stage, Alopecurus japonicus (Alopecurus japonicus; Dose 15 g/ha) | Weeding effect in post-emergence stage, Digitaria sanguinalis (Digitaria sanguinalis; Dose 15 g/ha) | Weeding effect in post-emergence stage, Setaria viridis (Setaria viridis; Dose 15 g/ha) | Weeding effect in post-emergence stage, Abutilon theophrasti (Abutilon theophrasti; Dose 15 g/ha) | Weeding effect in post-emergence stage, Echinochloa crusgalli (Echinochloa crusgalli; Dose 15 g/ha) | further results
C[C@@H](O/N=C/c1cc(-n2c(=O)cc(C(F)(F)F)n(C)c2=O)c(F)cc1Cl)C(=O)OC/C=C/Cl [225(R)] | 5 (Level 5: growth control rate is above 85%) | 5 (Level 5: growth control rate is above 85%) | 5 (Level 5: growth control rate is above 85%) | 5 (Level 5: growth control rate is above 85%) | 5 (Level 5: growth control rate is above 85%) | 5 (Level 5: growth control rate is above 85%) | 
C[C@@H](O/N=C/c1cc(-n2c(=O)cc(C(F)(F)F)n(C)c2=O)c(F)cc1Cl)C(=O)OCC#N [226(R)] | 5 (Level 5: growth control rate is above 85%) | 5 (Level 5: growth control rate is above 85%) | 5 (Level 5: growth control rate is above 85%) | 5 (Level 5: growth control rate is above 85%) | 5 (Level 5: growth control rate is above 85%) | 5 (Level 5: growth control rate is above 85%) | 
C[C@@H](O/N=C/c1cc(-n2c(=O)cc(C(F)(F)F)n(C)c2=O)c(F)cc1Cl)C(=O)OCCC#N [227(R)] | 5 (Level 5: growth control rate is above 85%) | 5 (Level 5: growth control rate is above 85%) | 5 (Level 5: growth control rate is above 85%) | 5 (Level 5: growth control rate is above 85%) | 5 (Level 5: growth control rate is above 85%) | 5 (Level 5: growth control rate is above 85%) | 
C[C@@H](O/N=C/c1cc(-n2c(=O)cc(C(F)(F)F)n(C)c2=O)c(F)cc1Cl)C(=O)OCCO [228(R)] | 5 (Level 5: growth control rate is above 85%) | 5 (Level 5: growth control rate is above 85%) | 5 (Level 5: growth control rate is above 85%) | 5 (Level 5: growth control rate is above 85%) | 5 (Level 5: growth control rate is above 85%) | 5 (Level 5: growth control rate is above 85%) | 
COCCOC(=O)[C@@H](C)O/N=C/c1cc(-n2c(=O)cc(C(F)(F)F)n(C)c2=O)c(F)cc1Cl [230(R)] | 5 (Level 5: growth control rate is above 85%) | 5 (Level 5: growth control rate is above 85%) | 5 (Level 5: growth control rate is above 85%) | 5 (Level 5: growth control rate is above 85%) | 5 (Level 5: growth control rate is above 85%) | 5 (Level 5: growth control rate is above 85%) | 
CCOCCOC(=O)[C@@H](C)O/N=C/c1cc(-n2c(=O)cc(C(F)(F)F)n(C)c2=O)c(F)cc1Cl [231(R)] | 5 (Level 5: growth control rate is above 85%) | 5 (Level 5: growth control rate is above 85%) | 5 (Level 5: growth control rate is above 85%) | 5 (Level 5: growth control rate is above 85%) | 5 (Level 5: growth control rate is above 85%) | 5 (Level 5: growth control rate is above 85%) | 
CCCCOCCOC(=O)[C@@H](C)O/N=C/c1cc(-n2c(=O)cc(C(F)(F)F)n(C)c2=O)c(F)cc1Cl [232(R)] | 5 (Level 5: growth control rate is above 85%) | 5 (Level 5: growth control rate is above 85%) | 5 (Level 5: growth control rate is above 85%) | 5 (Level 5: growth control rate is above 85%) | 5 (Level 5: growth control rate is above 85%) | 5 (Level 5: growth control rate is above 85%) | 
CSCOC(=O)[C@@H](C)O/N=C/c1cc(-n2c(=O)cc(C(F)(F)F)n(C)c2=O)c(F)cc1Cl [233(R)] | 5 (Level 5: growth control rate is above 85%) | 5 (Level 5: growth control rate is above 85%) | 5 (Level 5: growth control rate is above 85%) | 5 (Level 5: growth control rate is above 85%) | 5 (Level 5: growth control rate is above 85%) | 5 (Level 5: growth control rate is above 85%) | 
CSCCOC(=O)[C@@H](C)O/N=C/c1cc(-n2c(=O)cc(C(F)(F)F)n(C)c2=O)c(F)cc1Cl [234(R)] | 5 (Level 5: growth control rate is above 85%) | 5 (Level 5: growth control rate is above 85%) | 5 (Level 5: growth control rate is above 85%) | 5 (Level 5: growth control rate is above 85%) | 5 (Level 5: growth control rate is above 85%) | 5 (Level 5: growth control rate is above 85%) | 
CCCOC(=O)OC(=O)[C@@H](C)O/N=C/c1cc(-n2c(=O)cc(C(F)(F)F)n(C)c2=O)c(F)cc1Cl [236(R)] |  |  |  |  |  |  | Weeding effect in post-emergence stage, Eleusine indica (Eleusine indica; Dose 60 g/ha): 5 (Level 5: growth control rate is above 85%); Weeding effect in post-emergence stage, Alopecurus japonicus (Alopecurus japonicus; Dose 60 g/ha): 5 (Level 5: growth control rate is above 85%); Weeding effect in post-emergence stage, Digitaria sanguinalis (Digitaria sanguinalis; Dose 60 g/ha): 5 (Level 5: growth control rate is above 85%); Weeding effect in post-emergence stage, Setaria viridis (Setaria viridis; Dose 60 g/ha): 5 (Level 5: growth control rate is above 85%); Weeding effect in post-emergence stage, Abutilon theophrasti (Abutilon theophrasti; Dose 60 g/ha): 5 (Level 5: growth control rate is above 85%); Weeding effect in post-emergence stage, Echinochloa crusgalli (Echinochloa crusgalli; Dose 60 g/ha): 5 (Level 5: growth control rate is above 85%)
CC(=O)COC(=O)[C@@H](C)O/N=C/c1cc(-n2c(=O)cc(C(F)(F)F)n(C)c2=O)c(F)cc1Cl [238(R)] | 5 (Level 5: growth control rate is above 85%) | 5 (Level 5: growth control rate is above 85%) | 5 (Level 5: growth control rate is above 85%) | 5 (Level 5: growth control rate is above 85%) | 5 (Level 5: growth control rate is above 85%) | 5 (Level 5: growth control rate is above 85%) | 
COC(=O)CCOC(=O)[C@@H](C)O/N=C/c1cc(-n2c(=O)cc(C(F)(F)F)n(C)c2=O)c(F)cc1Cl [240(R)] |  |  |  |  |  |  | Weeding effect in post-emergence stage, Eleusine indica (Eleusine indica; Dose 30 g/ha): 5 (Level 5: growth control rate is above 85%); Weeding effect in post-emergence stage, Alopecurus japonicus (Alopecurus japonicus; Dose 30 g/ha): 5 (Level 5: growth control rate is above 85%); Weeding effect in post-emergence stage, Digitaria sanguinalis (Digitaria sanguinalis; Dose 30 g/ha): 5 (Level 5: growth control rate is above 85%); Weeding effect in post-emergence stage, Setaria viridis (Setaria viridis; Dose 30 g/ha): 5 (Level 5: growth control rate is above 85%); Weeding effect in post-emergence stage, Abutilon theophrasti (Abutilon theophrasti; Dose 30 g/ha): 5 (Level 5: growth control rate is above 85%); Weeding effect in post-emergence stage, Echinochloa crusgalli (Echinochloa crusgalli; Dose 30 g/ha): 5 (Level 5: growth control rate is above 85%)
COC(=O)C(C)OC(=O)[C@@H](C)O/N=C/c1cc(-n2c(=O)cc(C(F)(F)F)n(C)c2=O)c(F)cc1Cl (stereo partly drawn) [241(R)] |  |  |  |  |  |  | Weeding effect in post-emergence stage, Eleusine indica (Eleusine indica; Dose 30 g/ha): 5 (Level 5: growth control rate is above 85%); Weeding effect in post-emergence stage, Alopecurus japonicus (Alopecurus japonicus; Dose 30 g/ha): 5 (Level 5: growth control rate is above 85%); Weeding effect in post-emergence stage, Digitaria sanguinalis (Digitaria sanguinalis; Dose 30 g/ha): 5 (Level 5: growth control rate is above 85%); Weeding effect in post-emergence stage, Setaria viridis (Setaria viridis; Dose 30 g/ha): 5 (Level 5: growth control rate is above 85%); Weeding effect in post-emergence stage, Abutilon theophrasti (Abutilon theophrasti; Dose 30 g/ha): 5 (Level 5: growth control rate is above 85%); Weeding effect in post-emergence stage, Echinochloa crusgalli (Echinochloa crusgalli; Dose 30 g/ha): 5 (Level 5: growth control rate is above 85%)
COC(=O)C(C)(C)OC(=O)[C@@H](C)O/N=C/c1cc(-n2c(=O)cc(C(F)(F)F)n(C)c2=O)c(F)cc1Cl [243(R)] | 5 (Level 5: growth control rate is above 85%) | 5 (Level 5: growth control rate is above 85%) | 5 (Level 5: growth control rate is above 85%) | 5 (Level 5: growth control rate is above 85%) | 5 (Level 5: growth control rate is above 85%) | 5 (Level 5: growth control rate is above 85%) | 
COC(=O)C(OC)OC(=O)[C@@H](C)O/N=C/c1cc(-n2c(=O)cc(C(F)(F)F)n(C)c2=O)c(F)cc1Cl (stereo partly drawn) [245(R)] |  |  |  |  |  |  | Weeding effect in post-emergence stage, Eleusine indica (Eleusine indica; Dose 30 g/ha): 5 (Level 5: growth control rate is above 85%); Weeding effect in post-emergence stage, Alopecurus japonicus (Alopecurus japonicus; Dose 30 g/ha): 5 (Level 5: growth control rate is above 85%); Weeding effect in post-emergence stage, Digitaria sanguinalis (Digitaria sanguinalis; Dose 30 g/ha): 5 (Level 5: growth control rate is above 85%); Weeding effect in post-emergence stage, Setaria viridis (Setaria viridis; Dose 30 g/ha): 5 (Level 5: growth control rate is above 85%); Weeding effect in post-emergence stage, Abutilon theophrasti (Abutilon theophrasti; Dose 30 g/ha): 5 (Level 5: growth control rate is above 85%); Weeding effect in post-emergence stage, Echinochloa crusgalli (Echinochloa crusgalli; Dose 30 g/ha): 5 (Level 5: growth control rate is above 85%)
